According to article PMC9921161, “Antihyaluronidase and Antioxidant Potential of Atriplex sagittata Borkh. in Relation to Phenolic Compounds and Triterpene Saponins” (Molecules, 2023):

Target: Hyaluronidase from bovine testes type I-S (Bos taurus, UniProt Q2YDK3)
Assay: Antihyaluronidase activity, spectrophotometric (turbidimetric CTAB) method
Format: biochemical
Conditions: for IC50 hyaluronidase inhibition: pH 4.5, 37 °C
Procedure: Antihyaluronidase activity was determined using a spectrophotometric method described previously. Briefly, extracts after evaporation of methanol were dissolved in DMSO (at concentrations of 0.01–1 mg/mL) and were pre-incubated (10 min, 37 °C) in the presence of the hyaluronidase enzyme (25 µL Hyal, 30 U/mL) and incubation buffer (25 µL, acetate buffer, pH 4.5, […], 0.5 mg/mL albumin). The same procedure was applied to isolated compounds (at concentrations 0.005–1 mg/mL). Next, a solution of hyaluronic acid (25 µL HA, 0.3 mg/mL) was added to the reaction mixtures and the samples were incubated (45 min, 37 °C). After incubation, CTAB (200 µL of 2.5%) solution was added to the reaction mixtures. The inhibitory effect of the tested extracts and saponins on the enzyme activity was determined on the basis of the measurement of the absorbance of the precipitated nonhydrolyzed hyaluronic acid. The study was carried out using a multipurpose plate reader (Synergy HT BioTek, Winooski, VT, USA) at a wavelength of 600 nm. Antihyaluronidase activity was expressed as % enzyme inhibition, as previously described. Quercetin and escin were used as positive controls in the range of concentrations (10–1000 µg/mL corresponding to the analyzed substances (see Table 4).

[1] = read-out: Hyaluronidase Inhibition [%]

Chain of Hyaluronidase from bovine testes type I-S (Q2YDK3 entry or part of it): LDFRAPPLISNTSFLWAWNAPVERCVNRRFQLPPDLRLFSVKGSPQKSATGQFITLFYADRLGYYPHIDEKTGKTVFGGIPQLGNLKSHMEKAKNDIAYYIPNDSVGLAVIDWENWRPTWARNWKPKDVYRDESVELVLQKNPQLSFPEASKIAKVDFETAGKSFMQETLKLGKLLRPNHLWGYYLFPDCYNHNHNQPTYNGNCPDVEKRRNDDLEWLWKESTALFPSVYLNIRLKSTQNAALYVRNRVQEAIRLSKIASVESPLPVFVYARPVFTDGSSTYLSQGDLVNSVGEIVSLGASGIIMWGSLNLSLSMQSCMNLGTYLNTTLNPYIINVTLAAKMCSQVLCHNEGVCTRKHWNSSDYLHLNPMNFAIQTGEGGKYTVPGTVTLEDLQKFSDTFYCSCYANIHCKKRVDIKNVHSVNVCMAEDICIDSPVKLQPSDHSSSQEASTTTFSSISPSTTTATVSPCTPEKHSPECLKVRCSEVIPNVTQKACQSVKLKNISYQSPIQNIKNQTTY

| Compound | IC50 hyaluronidase inhibition [µg/mL] | inhibition at 10 µg/mL [1] [%] | inhibition at 20 µg/mL [1] [%] | inhibition at 50 µg/mL [1] [%] | inhibition at 100 µg/mL [1] [%] | inhibition at 200 µg/mL [1] [%] | inhibition at 300 µg/mL [1] [%] | inhibition at 500 µg/mL [1] [%] | inhibition at 700 µg/mL [1] [%] | inhibition at 1000 µg/mL [1] [%] |
| --- | --- | --- | --- | --- | --- | --- | --- | --- | --- | --- |
| O=c1c(O)c(-c2ccc(O)c(O)c2)oc2cc(O)cc(O)c12 [quercetin] | 514.28 | 0.61 ± 0.53 | 0.62 ± 0.54 | 1.24 ± 0.99 | 4.39 ± 0.88 | 13.9 ± 2.7 | 21.9 ± 4.04 | 38.8 ± 1.33 | 80.56 ± 0.49 | 91.1 ± 1.5 |
| escin | 307.38 |  |  |  |  |  |  |  |  |  |
